Experimental data: US10736831B2, “Oral care compositions” (Colgate-Palmolive Company, priority 2015, dated 2020)

Test system: five species mix of representative oral bacterial species
Assay: resazurin cell viability assay (bacterial metabolism/viability)
Method: A five species mix of representative oral bacterial species was used to simulate the complex bacterial flora of the oral environment. A bacterial mix comprising Actinomyces viscosus, Lactobacillus casei, Streptococcus oralis, Fusobacteriaum nucleatum and Veillonella parvulal was incubated with the compound under investigation for 1 hour at 37° C., neutralized, washed and stained with 50 μg/ml resazurin solution. When viable bacteria are incubated with resazurin, the blue non-fluorescent dye is reduced by the bacteria to pink fluorescent resorufin. Fluorescence of the test sample is read at 560 nm excitation/590 nm emission and compared to the fluorescence of a standardized mixture of live and dead bacteria to determine the percentage of the initial population that is viable after incubation.
In order to minimize the effects of formula excipients, dilute 1:100 and 1:10 dentifrice slurries of formulations in water were used in the assay. As before, the test compound (as a dilute slurry) was incubated with the bacteria for 1 hour at 37° C., neutralized, washed and stained with 50 μg/ml resazurin solution. The percentage of viable bacteria was then determined.

## sodium lauryl ether sulfate [0.5 wt. % SLES]
Aqueous test solutions, incubated 1 hour at 37° C., resazurin 50 μg/ml, fluorescence 560/590 nm
  % bacteria viable following treatment: 19.94%

## zinc coceth sulfate [0.5 wt. % ZCS]
Solutions of Example 1, Table 1
  antibacterial efficacy compared with comparators (in words): significantly more efficacious than surfactant alone or an aqueous solution of 0.8 wt. % total elemental zinc
